Measured values from publication PMC8012596, “Hypouricemic agents reduce indoxyl sulfate excretion by inhibiting the renal transporters OAT1/3 and ABCG2” (Scientific Reports, 2021).
Counter-ions that a name gives are not always drawn. Like-named read-outs stand apart in the source and are kept apart here.

Columns and labels:
intact rats [1] = assay: Effect of hypouricemic agents on endogenous IS pharmacokinetics in intact rats; conditions: for Effect on plasma concentration of endogenous IS: in words; for Kidney IS concentration compared with control: endogenous IS, at 4 h
Method: Thirty minutes after drug administration, 0.3 mg/kg d^4-IS dissolved in saline was intravenously administered via the tail vein to all rats. Blood samples were obtained from the jugular vein at 0.083, 0.25, 0.5, 1, 2, and 4 h after d^4-IS administration using a heparinized needle and kept on ice, and then the kidney was isolated with the rats under isoflurane anesthesia. Plasma was obtained by centrifuging the blood samples at 1000 × g for 10 min at 4 °C. To prepare the kidney sample, 4-times volume of saline was added to the sample and homogenized.
Endogenous IS and d^4-IS were determined in these samples as previously described with slightly modifications[10]. Briefly, the plasma and kidney homogenates were deproteinized using the internal standard containing methanol. These samples were measured using a liquid chromatography-tandem mass spectrometry (LC–MS/MS) systems consisting of a Nexera X2 and a Prominence instrument (Shimadzu Corp., Kyoto, Japan) coupled with QTRAP4500 (AB SCIEX, LLC., Framingham, MA). Pharmacokinetic parameters (AUC0-4 hr, C0, V0, T1/2, and CLtot) were analyzed using the Phoenix WinNonlin 6.4 software (Certara, L.P., Princeton, NJ). Some pharmacokinetic parameters were calculated using the following equations, in which "IS" means endogenous IS or d^4-IS. CLR, plasma = (urine IS concentration × urine volume) / AUC0-4 hr. CLR, kidney = (urine IS concentration × urine volume) / (kidney IS concentration at 4 h × 4). Kp = kidney IS concentration at 4 h / plasma IS concentration at 4 h.

intact rats [2] = assay: Effect of hypouricemic agents on pharmacokinetics of intravenously administered d4-IS in intact rats; assay type: in vivo, Wistar rats; parameters: concentration or dose not given beside the values
[3] = Plasma concentration of hypouricemic agents in intact and adenine-induced acute renal failure rats; assay type: in vivo, Wistar rats; conditions: Supplemental Fig. 2; in words
Method: Supplemental Fig. 1 Full-length blots/gels of renal expression of OAT1 (A/D), OAT3 (B/E), and ABCG2 (C/F) protein in intact and adenine-induced acute renal failure rats The chemiluminescence in blots and the proteins in gels were detected using ChemiDoc XRS Plus (Bio-Rad Laboratories, Inc.).
Supplemental Fig. 2 Plasma concentration of hypouricemic agents in intact rats and adenine-induced acute renal failure rats
Plasma drug concentration was measured using the same samples for measuring endogenous IS and d4-IS. Plasma samples were deproteinated with thrice volume of methanol and centrifuged at 1,000 × g for 10 min at 4°C. Drug concentrations were measured using the Alliance 2695 HPLC system (Waters Corporation. Milford, MA).

[4] = system: adenine-induced acute renal failure rats; assay: Effect of hypouricemic agents on pharmacokinetics of d4-IS in adenine-induced acute renal failure rats; assay type: in vivo, Wistar rats; conditions: in words
Method: Wistar rats were orally administered 600 mg/kg of adenine, once daily for 5 days. One week after the last administration, urine samples were collected for 4 h. Furthermore, blood samples were obtained from the jugular vein under the isoflurane anesthesia. […] Creatinine level in the plasma and urine was measured using the U-3900 spectrophotometer (Hitachi High-Tech Science Corp., Tokyo, Japan) with the L-type Wako Creatinine F kit (Wako Pure Chemical Industries, Ltd., Osaka, Japan). Creatinine clearance (CLCRE) was calculated using the following equation: CLCRE = [urine creatinine level (mg/dl) × urine volume (ml/min)] / plasma creatinine level (mg/dl) / body weight (kg). […] Four days later, the rats were selected based on the weight and serum creatinine level, and used in the study. In the intact group, the rats were used 4 days after the urine and blood sampling.

[5] = parameters: method as in Pharmaceuticals and Medical Devices Agency; conditions: ref Pharmaceuticals and Medical Devices Agency, read-out: Cmax at clinical dose, cited from earlier work
[6] = parameters: method as in Pharmaceuticals and Medical Devices Agency; conditions: ref Pharmaceuticals and Medical Devices Agency; cited from earlier work
[7] = parameters: method as in PMID 29016645; conditions: in humans; cited from earlier work

| Structure (SMILES) | Effect on plasma concentration of endogenous IS (intact rats [1]) | Decrease of CLR, plasma of d4-IS compared with control (intact rats [2]) [%] | Decrease of CLtot of d4-IS compared with control (intact rats [2]) [%] | Plasma concentrations of the drugs in adenine-induced acute renal failure rats versus intact rats [3] | Effect on plasma concentration of d4-IS [4] | Cmax ([5]; Cmax of q.d. administration, at a dose of 4 mg, for 1 weeks) [µM] | fu (unbound fraction rate) [6] | Decrease of CLR, kidney of endogenous IS compared with control (intact rats [1]) [%] | Decrease of CLR, plasma of endogenous IS compared with control (intact rats [1]) [%] | Increase of AUC0-4 hr of endogenous IS compared with control (intact rats [1]) [%] | Kidney IS concentration compared with control (intact rats [1]) [times] | Decrease of CLR, kidney of d4-IS compared with control (intact rats [2]) [%] | plasma protein binding ratio [7] [%] | Cmax ([5]; mean concentration of q.i.d. administration, at a dose of 2 g, for 4 weeks) [µM] |
| --- | --- | --- | --- | --- | --- | --- | --- | --- | --- | --- | --- | --- | --- | --- |
| CCc1oc2ccccc2c1C(=O)c1cc(Br)c(O)c(Br)c1 [Benzbromarone] | did not have any effects | 43 | 34 | not lower than those in intact rats | – | – | – | – | – | – | – | – | – | – |
| O=C(c1cc(Cl)c(O)c(Cl)c1)N1CS(=O)(=O)c2ccccc21 [Dotinurad] | did not have any effects | – | – | – | did not have any effect | 1.2 | 0.007 | – | – | – | – | – | – | – |
| Cc1nc(-c2ccc(OCC(C)C)c(C#N)c2)sc1C(=O)O [Febuxostat] | significantly increased | 35 | 44 | not lower than those in intact rats | – | – | – | 93 | 39 | 85 | 15.1 | 94 | – | – |
| O=S(=O)(O)Oc1c[nH]c2ccccc12 [IS, Indoxyl sulfate] | – | – | – | – | – | – | – | – | – | – | – | – | 93 | – |
| CCCN(CCC)S(=O)(=O)c1ccc(C(=O)O)cc1 [Probenecid] | significantly increased | 78 | 80 | not lower than those in intact rats | moderate but significant increase | – | 0.11 | – | 73 | 244 | 1.7 | – | – | 79 |
